What was measured:
[1] = tested on: Colletotrichum graminicola; assay: In vitro PDA plate test against fungal plant pathogens; type: cell-based; note: key: 0 - no activity, mycelial growth occurred; Fs - Fungistatic activity; Fd - Fungicidal effect - mycelial growth was completely inhibited
[2] = tested on: Alternaria solani; assay: as above; type: cell-based
[3] = tested on: Rhytisma acerinum; assay: as above; type: cell-based; note: key: 0 - no activity, mycelial growth occurred; Fs - Fungistatic activity; Fd - Fungicidal effect - mycelial growth was completely inhibited
[4] = tested on: Fusarium proliferatum; assay: as above; type: cell-based; note: key: 0 - no activity, mycelial growth occurred; Fs - Fungistatic activity; Fd - Fungicidal effect - mycelial growth was completely inhibited
[5] = tested on: Botrytis cinerea; assay: as above; type: cell-based
[6] = tested on: Sclerotinia homoeocarpa; assay: as above; type: cell-based; settings: sodium benzoate 5.0 mM, pH adjusted with citric acid
[7] = tested on: Fusarium nygamai; assay: as above; type: cell-based; settings: sodium benzoate 5.0 mM, pH adjusted with citric acid
[8] = tested on: Sclerotinia sclerotiorum; assay: as above; type: cell-based; settings: sodium benzoate 5.0 mM, pH adjusted with citric acid
[9] = tested on: Fusarium moniliforme; assay: as above; type: cell-based; settings: sodium benzoate 5.0 mM, pH adjusted with citric acid
[10] = tested on: Fusarium nygamai; settings: preservative used without the acidic pH of the invention
[11] = tested on: Botrytis cinerea; settings: preservative used without the acidic pH of the invention
[12] = tested on: Alternaria solani; settings: preservative used without the acidic pH of the invention; for Activity against Alternaria solani: key: 0 - no activity, mycelial growth occurred; Fs - Fungistatic activity; Fd - Fungicidal effect - mycelial growth was completely inhibited
[13] = tested on: plant pathogens
Protocol: The ingredients to be tested were mixed into melted sterilized PDA (potato dextrose agar), cooled to about 55° C., plated onto petri dishes and allowed to solidify. The plates were seeded with plugs of inoculum fungi. The plates were then examined after 2, 4 and 6 days. After one week, plugs showing no growth were removed and placed into untreated solidified PDA to determine viability of the fungi. Viability was determined after 2 and 4 days.
The ingredients to be tested were mixed into melted sterilized PDA, cooled to about 55° C., plated onto petri dishes and allowed to solidify. The plates were seeded with plugs of inoculum fungi. The plates were then examined after 2, 4 and 6 days. After one week, plugs showing no growth were removed and placed into untreated solidified PDA to determine viability of the fungi. Viability was determined after 2 and 4 days.

[14] = potassium sorbate and citric acid in PDA, examined after 2, 4, 6 days, viability on untreated PDA
[15] = potassium sorbate/citric acid formulations, with or without surfactants, in PDA
[16] = sodium benzoate 5.0 mM, pH adjusted with citric acid, in PDA

SMILES: C/C=C/C=C/C(=O)[O-].[K+] [Control A, potassium sorbate]
- Activity against Colletotrichum gram. [1, 14]: 0
- Activity against Alternaria solani [2, 14]: 0
- Activity against Rhytisma acerinum [3, 14]: 0
- Activity against Fusarium proliferatum [4, 14]: 0
- Activity against Botrytis cinerea [5, 14]: 0

SMILES: C/C=C/C=C/C(=O)[O-].[K+] [Control B, potassium sorbate]
- Activity against Colletotrichum gram. [1, 15]: 0
- Activity against Alternaria solani [2, 15]: 0
- Activity against Rhytisma acerinum [3, 15]: 0
- Activity against Fusarium proliferatum [4, 15]: 0
- Activity against Botrytis cinerea [5, 15]: 0

SMILES: O=C([O-])c1ccccc1.[Na+] [Control C, sodium benzoate]
- Activity against Sclerotinia homoeocarpa [6]: 0
- Activity against Colletotrichum graminicola [1, 16]: 0
- Activity against Fusarium nygamai [7]: 0
- Activity against Sclerotinia sclerotiorum [8]: 0
- Activity against Alternaria solani [2, 16]: 0
- Activity against Fusarium moniliforme [9]: 0
- Activity against Rhytisma acerinum [3, 16]: 0
- Activity against Fusarium proliferatum [4, 16]: 0
- Activity against Botrytis cinerea [5, 16]: 0

SMILES: C/C=C/C=C/C(=O)[O-].[K+] [potassium sorbate]
- concentration required to kill Fusarium nygamai [10]: greater than 2%
- concentration required to kill Botrytis cinerea [11]: greater than 2%
- concentration required to kill Alternaria solani [12]: greater than 2%
- pathogens killed ([13]; 1 mM (0.0015%), pH 4.1, surfactants added): 7 out of 8
- activity against the broad range of plant pathogens tested ([13]; 5 mM (0.075% solution), pH 4.1): cidal activity
- activity against plant pathogens ([13]; 10 mM (0.15% solution), pH above 7.0): inactive or at best exhibits only static activity
- number of pathogens with cidal activity ([13]; down to 1 mM sorbate or lower, pH 4.1): two

SMILES: O=C([O-])c1ccccc1.[Na+] [sodium benzoate]
- control of the plant pathogens ([13]; 5 mM (0.072% solution), pH above 7.0): ineffective
- species tested being killed ([13]; 5 mM, pH 4.1): 10 out of 10
- species with cidal activity ([13]; 5 mM, pH 4.6): 6 out of 10
